Results as given in the Deep4Chem optical property database.

Assay: photoluminescence quantum yield (fraction); solvent given as SMILES

COCCOCCOCCOc1ccc(/C=C/C2=[N+]3C(=C(c4cc(OC)cc(OC)c4)c4c(C)c(I)c(/C=C/c5ccc(OCCOCCOCCOC)cc5)n4[B-]3(F)F)C(C)=C2I)cc1
photoluminescence quantum yield (in C1CCOC1): 0.19
photoluminescence quantum yield (in CS(C)=O): 0.17
photoluminescence quantum yield (in ClCCl): 0.24

COC(=O)[C@@H]1C(=O)Oc2ccccc2[C@H]1c1c[nH]c2ccccc12
photoluminescence quantum yield (in CS(C)=O): 0.0094

COC(=O)/C=C/C=C/C1=CC2=C(c3c(C)cc(C)cc3C)c3cc(/C=C/C=C/C(=O)OC)cn3[B-](F)(F)[N+]2=C1
photoluminescence quantum yield (in ClCCl): 0.054

COC(=O)c1c(C(=O)OC)c2ccc(-c3ccccc3)nn2c1C
photoluminescence quantum yield (in CCCCCC): 0.685

Nc1ccc2nc(-c3ccccc3)c(=O)oc2c1
photoluminescence quantum yield (in c1ccccc1): 0.697

CN(c1ccccc1)c1ccc(-c2ccc(-c3ccc(N(C)c4ccccc4)cc3)c3nc(-c4ccccc4)c(-c4ccccc4)nc23)cc1
photoluminescence quantum yield (in ClC(Cl)Cl): 0.01

CC1(C)c2ccccc2N(c2ccc(-c3nc(-c4ccccn4)n(-c4ccccc4)n3)cc2)c2ccccc21
photoluminescence quantum yield (in ClCCl): 0.0612

COc1ccc(C2=C3C=CC(=[N+](C)C)C=C3[Si](C)(C)c3cc(N(C)C)ccc32)c(C)c1
photoluminescence quantum yield (in O): 0.29

CC(C)(C)c1ccc(-c2c(-c3ccc(N(c4ccccc4)c4ccccc4)cc3)c(C#N)c(-c3ccc(N(c4ccccc4)c4ccccc4)cc3)c(-c3ccc(C(C)(C)C)cc3)c2-c2ccc(C(C)(C)C)cc2)cc1
photoluminescence quantum yield (in C1CCOC1): 0.686

Cc1ccc(C)n1-c1ccccc1
photoluminescence quantum yield (in CC#N): 0.012
photoluminescence quantum yield (in CCCCCC): 0.005

Oc1cc(-c2ccco2)ccc1-c1nc2ccccc2s1
photoluminescence quantum yield (in CCO): 0.137
photoluminescence quantum yield (in ClCCl): 0.0812
photoluminescence quantum yield (in O): 0.1

O=c1oc2c(ccc3cc(O)ccc32)nc1-c1ccccc1
photoluminescence quantum yield (in c1ccccc1): 0.604

C(=C\c1cccnc1)/c1ccc(Nc2ccccc2)cc1
photoluminescence quantum yield (in CC#N): 0.25
photoluminescence quantum yield (in CCCCCC): 0.37

O=c1c2ccccc2n(-c2ccc(-c3ccc(-n4c5ccccc5c(=O)c5ccccc54)cc3)cc2)c2ccccc12
photoluminescence quantum yield (in ClCCl): 0.31

F[B-]1(F)OC(c2ccccc2)=Cc2cc3[n+](c[n+]21)[B-](F)(F)OC(c1ccccc1)=C3
photoluminescence quantum yield (in ClCCl): 0.55

CC(C)[Si]1(C(C)C)c2cc(C=O)ccc2-c2ccc(N(c3ccccc3)c3ccccc3)cc21
photoluminescence quantum yield (in C1CCCCC1): 0.5
photoluminescence quantum yield (in CC#N): 0.48
photoluminescence quantum yield (in CCO): 0.11
photoluminescence quantum yield (in CCOCC): 0.76
photoluminescence quantum yield (in CS(C)=O): 0.58
photoluminescence quantum yield (in ClCCl): 0.8
photoluminescence quantum yield (in c1ccccc1): 0.77

COC(=O)c1ccc(/C=C2\C=C(c3ccc(C#N)cc3)N(CC(C)C)C2=O)cc1
photoluminescence quantum yield (in C1COCCO1): 0.192

CC1=C(c2cccs2)C2=Cc3c(-c4cccs4)c(C)c(C)n3[B-](F)(F)[N+]2=C1C
photoluminescence quantum yield (in CC#N): 0.52

C1=C/C2=C(\c3ccccc3)c3c[nH]c(c3)/C(c3ccccc3)=C3/C=CC(=N3)/C(c3ccccc3)=c3/cc/c([nH]3)=C(\c3ccccc3)C1=N2
photoluminescence quantum yield (in CC(=O)N(C)C): 0.046

COc1ccc(-c2cnc3nn4ccccc4c3n2)cc1
photoluminescence quantum yield (in C1CCOC1): 0.83

Cc1cc(C)c(C2=C3C=C(/C=C/C(=O)OC(C)(C)C)C=[N+]3[B-](F)(F)n3cccc32)c(C)c1
photoluminescence quantum yield (in ClCCl): 0.3

CN(C)c1ccc(/C=C/c2cnccn2)cc1
photoluminescence quantum yield (in ClCCl): 0.17

CCCCCc1c(C)c2c3ccccc3[nH]c2c2ccccc12
photoluminescence quantum yield (in ClCCl): 0.167

CCCCCC(CC)C1(C(CC)CCCCC)c2ccccc2-c2ccc(C#Cc3cc(C#Cc4ccc5c(c4)C(C(CC)CCCCC)(C(CC)CCCCC)c4ccccc4-5)c4ccc5c(C#Cc6ccc7c(c6)C(C(CC)CCCCC)(C(CC)CCCCC)c6ccccc6-7)cc(C#Cc6ccc7c(c6)C(C(CC)CCCCC)(C(CC)CCCCC)c6ccccc6-7)c6ccc3c4c65)cc21 (stereo not given)
photoluminescence quantum yield (in Cc1ccccc1): 0.67

COc1ccc(C2=Nc3sc(-c4ccccc4)n[n+]3[B-](F)(F)O2)cc1
photoluminescence quantum yield (in Cc1ccccc1): 0.29

CN1/C(=C/C=C(/C=C/c2sc3ccccc3[n+]2C)c2cc(F)cc(F)c2)Sc2ccccc21
photoluminescence quantum yield (in CCO): 0.1
photoluminescence quantum yield (in CO): 0.08
photoluminescence quantum yield (in CS(C)=O): 0.18

CC(C)c1cc(C(C)C)c(B2c3ccccc3Oc3cc(N4c5ccccc5C5(c6ccccc6Oc6ccccc65)c5ccccc54)ccc32)c(C(C)C)c1
photoluminescence quantum yield (in Cc1ccccc1): 0.56

CC1=C(Br)C(C)=[N+]2C1=C(c1c(-c3ccccn3)nc3ccccn13)c1c(C)c(Br)c(C)n1[B-]2(F)F
photoluminescence quantum yield (in ClCCl): 0.0641

CCN(CC)c1ccc2cc(/C=C/C(O)=C/C(C)=O)c(=O)oc2c1
photoluminescence quantum yield (in CC#N): 0.36
photoluminescence quantum yield (in CC(C)=O): 0.46
photoluminescence quantum yield (in CCOC(C)=O): 0.5
photoluminescence quantum yield (in CO): 0.35
photoluminescence quantum yield (in CS(C)=O): 0.39
photoluminescence quantum yield (in Cc1ccccc1): 0.66
photoluminescence quantum yield (in ClC(Cl)Cl): 0.53
photoluminescence quantum yield (in ClCCl): 0.52

Cc1ccccc1-c1ccccc1C
photoluminescence quantum yield (in C1CCCCC1): 0.01

c1ccc2c(c1)[nH]c1cccnc12
photoluminescence quantum yield (in C1CCCCC1): 0.145
photoluminescence quantum yield (in C1CCOC1): 0.081
photoluminescence quantum yield (in C1COCCO1): 0.122
photoluminescence quantum yield (in CCO): 0.129
photoluminescence quantum yield (in CN(C)C=O): 0.079
photoluminescence quantum yield (in Cc1ccccc1): 0.099
photoluminescence quantum yield (in ClC(Cl)Cl): 0.124
photoluminescence quantum yield (in Clc1ccccc1): 0.119

O=c1oc2ccc(Br)cc2cc1-c1cc2cc(Br)ccc2o1
photoluminescence quantum yield (in CS(C)=O): 0.2

CN(C)c1ccc(/C=C/c2cnc3ccccc3n2)cc1
photoluminescence quantum yield (in ClCCl): 0.59

CC1=[N+]2C(=C(Oc3cc(C)c4c(c3)CC[C@@](C)(CCC[C@H](C)CCC[C@H](C)CCCC(C)C)O4)c3ccc(C)n3[B-]2(F)F)C=C1c1cc2n(c1)[B-](F)(F)[N+]1=CC=CC1=C2c1c(C)cc(C)cc1C
photoluminescence quantum yield (in C1CCCCC1): 0.45
photoluminescence quantum yield (in CCOC(C)=O): 0.11

COC(=O)c1cc(=O)n(C)c2cc(-c3ccc(N4CCN(C)CC4)cc3)sc12
photoluminescence quantum yield (in CC#N): 0.03
photoluminescence quantum yield (in ClCCl): 0.99

CN(C)CCN(Cc1c2ccccc2cc2ccccc12)c1ccc([N+](=O)[O-])cc1
photoluminescence quantum yield (in C1CCCCC1): 0.0008
photoluminescence quantum yield (in C1CCOC1): 0.0015
photoluminescence quantum yield (in CC#N): 0.0143
photoluminescence quantum yield (in CC(C)=O): 0.022
photoluminescence quantum yield (in CCO): 0.023
photoluminescence quantum yield (in CN(C)C=O): 0.0411
photoluminescence quantum yield (in CO): 0.0606
photoluminescence quantum yield (in ClC(Cl)Cl): 0.0272

N#Cc1ccc(C#Cc2ccccc2C#N)cc1
photoluminescence quantum yield (in ClC(Cl)Cl): 0.452

COc1ccc(C2=[N+]3C(=Nc4c5c6ccccc6c6ccc(C(C)(C)C)cc6c5c(-c5ccc(OC)cc5)n4[B-]3(F)F)c3c2c2cc(C(C)(C)C)ccc2c2ccccc32)cc1
photoluminescence quantum yield (in Cc1ccccc1): 0.32

O=C1c2cc(-n3c4ccccc4c4ccccc43)ccc2S(=O)(=O)c2ccc(-n3c4ccccc4c4ccccc43)cc21
photoluminescence quantum yield (in c1cc(-c2cccc(-n3c4ccccc4c4ccccc43)c2)cc(-n2c3ccccc3c3ccccc32)c1): 0.348

CC(=O)Nc1ccc(O)cc1
photoluminescence quantum yield (in C1CCOC1): 0.0031
photoluminescence quantum yield (in CC#N): 0.0035
photoluminescence quantum yield (in CCCCO): 0.0007
photoluminescence quantum yield (in CO): 0.0037
photoluminescence quantum yield (in CS(C)=O): 0.0022

c1ccc2c(c1)Oc1ccccc1N2c1ccc2c(c1)c1ccccc1n1ccnc21
photoluminescence quantum yield (in O=P(c1ccccc1)(c1ccccc1)c1ccccc1Oc1ccccc1P(=O)(c1ccccc1)c1ccccc1): 0.27

CCN(CC)c1ccc(-c2nc3c(c4c2-c2ccc(C#N)cc2CC4)-c2ccc(C#N)cc2CC3)cc1
photoluminescence quantum yield (in C1CCOC1): 0.74
photoluminescence quantum yield (in CC#N): 0.339
photoluminescence quantum yield (in CCCCCC): 0.209
photoluminescence quantum yield (in CCOC(C)=O): 0.565
photoluminescence quantum yield (in CO): 0.148
photoluminescence quantum yield (in CS(C)=O): 0.47
photoluminescence quantum yield (in Cc1ccccc1): 0.427
photoluminescence quantum yield (in ClCCl): 0.842

CCCCCCCCOc1ccc(-c2c3c4n(c(-c5ccc(OCCCCCCCC)cc5)c3c3n2[B-](c2ccccc2)(c2ccccc2)[n+]2c(ccc5cc(C(C)(C)C)ccc52)C=3C#N)[B-](c2ccccc2)(c2ccccc2)[n+]2c(ccc3cc(C(C)(C)C)ccc32)C=4C#N)cc1
photoluminescence quantum yield (in ClC(Cl)Cl): 0.53

CC(C)[Si](C#Cc1c2cc3ccccc3cc2c(C#C[Si](C(C)C)(C(C)C)C(C)C)c2nc3c(nc12)Cc1ccccc1-3)(C(C)C)C(C)C
photoluminescence quantum yield (in CCCCCC): 0.15

CC(C)(C)c1ccc2c(c1)c1cc(C(C)(C)C)ccc1n2-c1cccc2c1Oc1c(-c3nc(-c4ccccc4)nc(-c4ccccc4)n3)cccc1C2(C)C
photoluminescence quantum yield (in Cc1ccccc1): 0.06

COc1ccc(C#Cc2ccc(C#Cc3ccc(C#Cc4ccccc4C#N)cc3C#N)cc2C#N)cc1
photoluminescence quantum yield (in C1CCOC1): 0.972
photoluminescence quantum yield (in CC#N): 0.973
photoluminescence quantum yield (in CN(C)C=O): 0.949
photoluminescence quantum yield (in ClC(Cl)Cl): 0.982
photoluminescence quantum yield (in c1ccccc1): 0.972

CC1=C(c2ccc(N(C)C)cc2)C(C)=[N+]2C1=C(c1c(-c3ccccn3)nc3ccccn13)c1c(C)cc(C)n1[B-]2(F)F
photoluminescence quantum yield (in ClCCl): 0.0041

CC(=O)c1ccc2ccc3cccc4ccc1c2c34
photoluminescence quantum yield (in C1CCOC1): 0.002
photoluminescence quantum yield (in CC#N): 0.002
photoluminescence quantum yield (in CCCCCC): 0.002
photoluminescence quantum yield (in CCO): 0.012
photoluminescence quantum yield (in CN(C)C=O): 0.002
photoluminescence quantum yield (in CO): 0.014
photoluminescence quantum yield (in Cc1ccccc1): 0.003
photoluminescence quantum yield (in ClCCl): 0.002

CCCCCCNC(=O)c1sc(-c2ccc(-c3cc(-c4ccc(C(C)(C)C)cc4)c(C(=O)NCCCCCC)s3)s2)cc1-c1ccc(C(C)(C)C)cc1
photoluminescence quantum yield (in ClCCl): 0.31

O=S(=O)(/N=c1\oc2cccc3c4c(-c5ccccc5)oc5cccc(c(c1-c1ccccc1)c23)c54)C(F)(F)F
photoluminescence quantum yield (in CCCCCC): 0.7
photoluminescence quantum yield (in CO): 0.78
photoluminescence quantum yield (in CS(C)=O): 0.6
photoluminescence quantum yield (in ClC(Cl)Cl): 0.92
photoluminescence quantum yield (in ClCCl): 0.94
photoluminescence quantum yield (in O): 0.05

CCCCCc1ccc(-c2ccc(C#Cc3cc(C#Cc4ccc(-c5ccc(CCCCC)cc5)cc4)c4ccc5c(C(=O)c6ccccc6)cc(C#Cc6ccc(-c7ccc(CCCCC)cc7)cc6)c6ccc3c4c65)cc2)cc1
photoluminescence quantum yield (in ClCCl): 0.51

CNC(=O)[C@H](C)NC(=O)c1cccc2c1C#Cc1c(N)cccc1OCCCO2
photoluminescence quantum yield (in CC#N): 0.25
photoluminescence quantum yield (in ClCCl): 0.44

O=C1c2ccccc2-c2nc3ccccc3n21
photoluminescence quantum yield (in ClCCl): 0.04

CC(C)c1cccc(C(C)C)c1-n1c(=O)c2cc3nc(-c4ccccc4)c4cc5c(=O)n(-c6c(C(C)C)cccc6C(C)C)c(=O)c6cc7c(-c8ccccc8)nc8cc(c1=O)c2c1c3c4c(c56)c7c81
photoluminescence quantum yield (in ClC(Cl)Cl): 0.1

C(=C\c1ccc(/C=C/c2c3ccccc3cc3ccccc23)cc1)/c1ccncc1
photoluminescence quantum yield (in C1CCOC1): 0.34
